Data reported in US8604042B2, “Bi-aryl meta-pyrimidine inhibitors of kinases” (TargeGen, Inc., priority 2005, dated 2013).
Counter-ions that a name gives are not always drawn.

The compounds below were run against T1, recombinant JAK2 (Homo sapiens, UniProt O60674) (assay: IC50 value determinations for Jak2 kinase, luminescence-based kinase assay (Kinase-Glo)). Settings: Table 1.
T1 construct: purchased Upstate Cell Signaling Solutions
T1 sequence (O60674 808-1132 limits assumed): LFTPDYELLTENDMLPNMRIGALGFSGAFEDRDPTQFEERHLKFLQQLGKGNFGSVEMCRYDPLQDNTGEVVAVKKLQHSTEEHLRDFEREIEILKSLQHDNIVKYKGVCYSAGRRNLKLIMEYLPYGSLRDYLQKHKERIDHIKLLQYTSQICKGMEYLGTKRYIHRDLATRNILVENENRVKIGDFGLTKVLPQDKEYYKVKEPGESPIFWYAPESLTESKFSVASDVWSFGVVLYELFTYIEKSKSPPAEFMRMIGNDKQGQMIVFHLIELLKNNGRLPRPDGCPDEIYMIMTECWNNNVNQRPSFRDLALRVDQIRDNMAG
Format: biochemical
Experimental: The IC50 values for compounds were determined using a luminescence-based kinase assay with recombinant JAK2 obtained from Upstate Cell Signaling Solutions. In white, flat bottom, 96-well plates (Nunc) parallel assays were run at room temperature at a final volume of 50 μL.
Two control reactions were also ran: one reaction containing no compound and the second containing neither inhibitor nor peptide substrate. IC50 values were derived from experimental data using the non-linear curve fitting capabilities of Prism (Version 4; GraphPad Software).
Compound Cc1cnc(Nc2ccc(OCCN3CCCC3)cc2)nc1Nc1ccc(C(F)(F)F)cc1 [N2-(4-(2-(pyrrolidin-1-yl)ethoxy)phenyl)-N4-(4-(trifluoromethyl)phenyl)-5-methylpyrimidine-2,4-diamine hydrochloride] has an IC50 of 39.8 nM.
In the case of Cc1cnc(Nc2ccc(C[N+]3([O-])CCOCC3)cc2)nc1Nc1cccc(S(=O)(=O)NC(C)(C)C)c1 [N-tert-Butyl-3-{5-methyl-2-[4-(4-oxy-morpholin-4-ylmethyl)-phenylamino]-pyrimidin-4-ylamino}-benzenesulfonamide], the IC50 is reported as 48.6 nM.
Cc1cnc(Nc2ccc(OCCN3CCCC3)cc2)nc1Nc1ccc(C)c2[nH]ccc12 [N2-(4-(2-(pyrrolidin-1-yl)ethoxy)phenyl)-5-methyl-N4-(7-methyl-1H-indol-4-yl)pyrimidine-2,4-diamine Hydrochloride] showed an IC50 of 6.98 nM.
CCCS(=O)(=O)c1cccc(Nc2nc(Nc3ccc(N4CCN(C)CC4)cc3)ncc2C)c1 [5-methyl-N2-(4-(4-methylpiperazin-1-yl)phenyl)-N4-(3-(propylsulfonyl)phenyl) pyrimidine-2,4-diamine] showed an IC50 of 8 nM.
In the case of Cc1cnc(Nc2ccc(N3CCN(C)CC3)cc2)nc1Nc1cccc(C(C)(C)C)c1 [N4-(3-tert-butylphenyl)-5-methyl-N2-(4-(4-methylpiperazin-1-yl)phenyl)pyrimidine-2,4-diamine Hydrochloride], the IC50 is reported as 4.7 nM.
COc1cccc(Nc2ccnc(Nc3ccc(S(=O)(=O)NCCN4CCCC4)cc3)n2)c1 [4-[4-(3-Methoxy-phenylamino)-pyrimidin-2-ylamino]-N-(2-pyrrolidin-1-yl-ethyl)-benzenesulfonamide trifluoroacetate] gave an IC50 of 638 nM.
Cc1cnc(Nc2ccc(OCCN3CCCC3)cc2)nc1Nc1cccc(S(N)(=O)=O)c1 [3-{5-Methyl-2-[4-(2-pyrrolidin-1-yl-ethoxy)-phenylamino]-pyrimidin-4-ylamino}-benzenesulfonamide] gave an IC50 of 72.2 nM.
With Cc1cnc(Nc2ccc(OCCN3CCCC3)cc2)nc1Nc1csc2ccccc12 [N4-Benzo[b]thiophen-3-yl-5-methyl-N2-[4-(2-pyrrolidin-1-yl-ethoxy)-phenyl]-pyrimidine-2,4-diamine] the IC50 was 12.4 nM.
Compound COc1cccc(Nc2nc(Nc3ccc(OCCN4CCCC4)cc3)ncc2C)c1 [drawing 301, N2-(4-(2-(pyrrolidin-1-yl)ethoxy)phenyl)-N4-(3-methoxyphenyl)-5-methylpyrimidine-2,4-diamine Hydrochloride] has an IC50 of 52.8 nM.
Cc1cnc(Nc2cccc(N3CCNCC3)c2)nc1Nc1cccc(S(=O)(=O)NC(C)(C)C)c1 [N-tert-Butyl-3-[5-methyl-2-(3-piperazin-1-yl-phenylamino)-pyrimidin-4-ylamino]-benzenesulfonamide Hydrochloride] gave an IC50 of 18 nM.
In the case of COc1cc(Nc2nc(Nc3ccc(N4CCOCC4)cc3)ncc2C)ccc1Cl [N4-(4-Chloro-3-methoxy-phenyl)-5-methyl-N2-(4-morpholin-4-yl-phenyl)-pyrimidine-2,4-diamine], the IC50 is reported as 130 nM.
Cc1cnc(Nc2ccc(OCCN3CCCC3)cc2)nc1Nc1cccc2[nH]ccc12 [N2-(4-(2-(pyrrolidin-1-yl)ethoxy)phenyl)-N4-(1H-indol-4-yl)-5-methylpyrimidine-2,4-diamine Hydrochloride] showed an IC50 of 19.2 nM.
Cc1cnc(Nc2ccc(OCCN3CCCC3)cc2)nc1Nc1cccc(N(C)C)c1 [N4-(3-Dimethylamino-phenyl)-5-methyl-N2-[4-(2-pyrrolidin-1-yl-ethoxy)-phenyl]-pyrimidine-2,4-diamine] gave an IC50 of 19.7 nM.
Work on Cc1cnc(Nc2ccc(OC3CCNCC3)cc2)nc1Nc1cccc2[nH]ccc12 [N4-(1H-indol-4-yl)-5-methyl-N2-(4-(piperidin-4-yloxy)phenyl)pyrimidine-2,4-diamine trifluoroacetic acid salt] yielded an IC50 of 4.27 nM.
With COc1cc(Nc2nc(Nc3ccc(-n4cccn4)cc3)ncc2C)ccc1Cl [N4-(4-Chloro-3-methoxy-phenyl)-5-methyl-N2-(4-pyrazol-1-yl-phenyl)-pyrimidine-2,4-diamine trifluoroacetate] the IC50 was 35.3 nM.
Cc1cnc(Nc2ccc(N3CCN(C)CC3)cc2)nc1Nc1cccc(-n2cccc2)c1 [N4-(3-(1H-pyrrol-1-yl)phenyl)-5-methyl-N2-(4-(4-methylpiperazin-1-yl)phenyl)pyrimidine-2,4-diamine] gave an IC50 of 33.8 nM.
Work on COc1cc(Nc2nc(Nc3ccc(CN4CCOCC4)cc3)ncc2C)ccc1Cl [N4-(4-Chloro-3-methoxy-phenyl)-5-methyl-N2-(4-morpholin-4-ylmethyl-phenyl)-pyrimidine-2,4-diamine trifluoroacetate] yielded an IC50 of 13.3 nM.
With Cc1cnc(Nc2ccc(N3CCN(CCO)CC3)cc2)nc1Nc1cccc(S(=O)(=O)NC(C)(C)C)c1 [N-tert-Butyl-3-(2-{4-[4-(2-hydroxy-ethyl)-piperazin-1-yl]-phenylamino)-[5-methyl-pyrimidin-4-ylamino]-benzenesulfonamide Hydrochloride] the IC50 was 7.09 nM.
Cc1cnc(Nc2ccc(N3CCN(C)CC3)cc2)nc1Nc1cccc(C(N)=O)c1 [3-{5-Methyl-2-[4-(4-methyl-piperazin-1-yl)-phenylamino]-pyrimidin-4-ylamino}-benzamide] showed an IC50 of 23 nM.
Work on Cc1cnc(Nc2ccc(N3CCN(C)CC3)cc2)nc1Nc1cccc(C(N)=O)c1C [2-Methyl-3-{5-methyl-2-[4-(4-methyl-piperazin-1-yl)-phenylamino]-pyrimidin-4-ylamino}-benzamide] yielded an IC50 of 26.2 nM.
Cc1cnc(Nc2ccc(OC3CCNCC3)cc2)nc1Nc1cccc(C)c1C [5-methyl-N4-(2,3-dimethylphenyl)-N2-(4-(piperidin-4-yloxy)phenyl)pyrimidine-2,4-diamine Hydrochloride] gave an IC50 of 4.38 nM.
Cc1cnc(Nc2ccc(N3CCN(C)CC3)cc2)nc1Nc1cccc(S(C)(=O)=O)c1 [5-methyl-N2-(4-(4-methylpiperazin-1-yl)phenyl)-N4-(3-(methylsulfonyl)phenyl) pyrimidine-2,4-diamine] showed an IC50 of 215 nM.
With Cc1cnc(Nc2ccc(-n3ccnc3C)cc2)nc1Nc1cccc(C(C)(C)C)c1 [N4-(3-tert-butylphenyl)-5-methyl-N2-(4-(2-methyl-1H-imidazol-1-yl)phenyl)pyrimidine-2,4-diamine Hydrochloride] the IC50 was 38.4 nM.
COc1cc(Nc2nc(Nc3cccc(CN4CCNCC4)c3)ncc2C)ccc1Cl [N4-(4-Chloro-3-methoxy-phenyl)-5-methyl-N2-(3-piperazin-1-ylmethyl-phenyl)-pyrimidine-2,4-diamine] was tested, and the IC50 was 15.8 nM.
With COC(=O)c1cc(Nc2ncc(C)c(Nc3ccc(Cl)c(OC)c3)n2)ccc1N1CCNCC1 [5-[4-(4-Chloro-3-methoxy-phenylamino)-5-methyl-pyrimidin-2-ylamino]-2-piperazin-1-yl-benzoic acid methyl ester] the IC50 was 5.12 nM.
For Cc1cnc(Nc2ccc(OCCN3CCCC3)cc2)nc1Nc1cccc(C(C)(C)C)c1 [N2-(4-(2-(pyrrolidin-1-yl)ethoxy)phenyl)-N4-(3-tert-butylphenyl)-5-methylpyrimidine-2,4-diamine Hydrochloride], the IC50 was 6.71 nM.
Compound Cc1ccc(Nc2nc(Nc3ccc(-n4ccnc4)cc3)ncc2C)cc1S(=O)(=O)NC(C)(C)C [N-tert-Butyl-5-[2-(4-imidazol-1-yl-phenylamino)-5-methyl-pyrimidin-4-ylamino]-2-methyl-benzenesulfonamide] has an IC50 of 88.2 nM.
Cc1cc(Nc2nc(Nc3ccc(OCCN4CCCC4)cc3)ncc2C)ccc1Cl [N2-(4-(2-(pyrrolidin-1-yl)ethoxy)phenyl)-N4-(4-chloro-3-methylphenyl)-5-methylpyrimidine-2,4-diamine Hydrochloride] was tested, and the IC50 was 12.4 nM.
Cc1cnc(Nc2ccc(CN3CCNCC3)cc2)nc1Nc1cccc2[nH]ccc12 [N4-(1H-Indol-4-yl)-5-methyl-N2-(4-piperazin-1-ylmethyl-phenyl)-pynmidine-2,4-diamine] was tested, and the IC50 was 10.1 nM.
Cc1cnc(Nc2ccc(N3CCN(C)CC3)cc2)nc1Nc1cccc(S(=O)(=O)NC(C)C)c1 [N-Isopropyl-3-{5-methyl-2-[4-(4-methyl-piperazin-1-yl)-phenylamino]-pyrimidin-4-ylamino}-benzenesulfonamide] showed an IC50 of 11.8 nM.
Cc1cn(-c2ccc(Nc3ncc(C)c(Nc4cccc(S(=O)(=O)NC(C)(C)C)c4)n3)cc2)cn1 [N-tert-Butyl-3-{5-methyl-2-[4-(4-methyl-imidazol-1-yl)-phenylamino]-pyrimidin-4-ylamino}-benzenesulfonamide] showed an IC50 of 41.7 nM.
Cc1cnc(Nc2ccc(OCCN3CCCC3)cc2)nc1Nc1cccc(OC(F)(F)F)c1 [N2-(4-(2-(pyrrolidin-1-yl)ethoxy)phenyl)-5-methyl-N4-(3-(trifluoromethoxy)phenyl) pyrimidine-2,4-diamine] gave an IC50 of 20.7 nM.
Compound Cc1cnc(Nc2ccc(-n3cccn3)cc2)nc1Nc1cccc(C(C)(C)C)c1 [N2-(4-(1H-pyrazol-1-yl)phenyl)-N4-(3-tert-butylphenyl)-5-methylpyrimidine-2,4-diamine] has an IC50 of 151 nM.
Cc1cnc(Nc2ccc(OCCN3CCCC3)cc2)nc1Nc1ccc(Cl)c(C(F)(F)F)c1 [N2-(4-(2-(pyrrolidin-1-yl)ethoxy)phenyl)-N4-(4-chloro-3-(trifluoromethyl)phenyl)-5-methylpyrimidine-2,4-diamine] showed an IC50 of 23.4 nM.
For Cc1cnc(Nc2ccc(OCCN3CCCC3)cc2)nc1Nc1ccc(Cl)c(Cl)c1 [N4-(3,4-Dichloro-phenyl)-5-methyl-N2-[4-(2-pyrrolidin-1-yl-ethoxy)-phenyl]-pyrimidine-2,4-diamine], the IC50 was 25.7 nM.
Compound Cc1cnc(Nc2ccc(N3CCN(C)CC3)cc2)nc1Nc1cccc(S(N)(=O)=O)c1 [3-{5-Methyl-2-[4-(4-methyl-piperazin-1-yl)-phenylamino]-pyrimidin-4-ylamino}-benzenesulfonamide] has an IC50 of 13.6 nM.
Cc1cnc(Nc2ccc(OCCN3CCCC3)cc2)nc1Nc1ccc(Cl)c(F)c1 [N4-(4-Chloro-3-fluoro-phenyl)-5-methyl-N2-[4-(2-pyrrolidin-1-yl-ethoxy)-phenyl]-pyrimidine-2,4-diamine] was tested, and the IC50 was 40.1 nM.

Same assay, conditions: Table 5, Initial Screening Hits for JAK2
With COc1cc(Nc2nc(Nc3ccc(OCCN4CCCC4)cc3)ncc2C#N)c(Cl)cc1Cl [Compound 1] the IC50 was 6240 nM.

Same assay, conditions: Table 6
Work on COc1cccc(Nc2nc(Nc3ccc(OCCN4CCCC4)cc3)ncc2C)c1 [Compound 5] yielded an IC50 of 53 nM.

Same assay, conditions: Table 7, SAR for the P3 region
Work on COc1cccc(Nc2nc(Nc3ccc(OCCN4CCCC4)cc3)ncc2C)c1 [Compound 5] yielded an IC50 of 53 nM.
